{
  "source": "paper PMC8222254",
  "about": "“Self-assembly of an anion receptor with metal-dependent kinase inhibition and potent in vitro anti-cancer properties” (Nature Communications, 2021)",
  "assay_type_in_all_cases": "cell-based, human",
  "key": {"HT-29": {"tested_on": "HT-29", "experiment": "Chemosensitivity, 96 h continuous exposure, MTT assay;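 for SI (NPI): adult human brain neural progenitor non-cancer cells from an epilepsy surgery patient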;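 for Selectivity Index using the NPI non-cancer cell line: adult human brain neural progenitor non-cancer cells from an epilepsy surgery patient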", "procedure,_shortened": "(§1)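 Cells seeded at 2 × 10^3/well (GBM1 3 × 10^3/well) and left overnight at 37 °C, then exposed continuously for 96 h to a range of compound concentrations (final DMSO 0.2%). Viability read by MTT, absorbance at 540 nm; IC50 taken from dose-response curves as concentration reducing cell growth by 50%.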"}, "HCT116 p53-/- [1]": {"tested_on": "HCT116 p53-/-", "experiment": "Chemosensitivity, 96 h continuous exposure, MTT assay", "details": "for SI (ARPE19): mean IC50 ARPE-19 / mean IC50 HCT116 p53-/-; for SI (MCF10A): mean IC50 MCF10A / mean IC50 HCT116 p53-/-", "procedure,_shortened": "as §1"}, "H460": {"tested_on": "H460", "experiment": "Chemosensitivity, 96 h continuous exposure, MTT assay", "procedure,_shortened": "(§2)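 Cells were seeded overnight at 37 °C (2 × 10^3/well; GBM1 at 3 × 10^3/well on poly-L-ornithine/laminin in Neurobasal with hFGF/rhEGF), then exposed to compound concentration ranges for 96 h. Viability was read by MTT (4 h, formazan in DMSO, A540) and IC50 taken from dose–response curves.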"}, "PSN1": {"tested_on": "PSN1", "experiment": "Chemosensitivity, 96 h continuous exposure, MTT assay", "procedure,_shortened": "as §2"}, "HCT116 p53-/- [2]": {"tested_on": "HCT116 p53-/-", "experiment": "Confocal imaging of autophagic cells (CYTO-ID)", "details": "3.125 µM, 40 h", "protocol": "Cells were seeded in Lumox chamber slides (8-well, Sarstedt) at a density of 1.25 × 10^4 cells/well (ARPE-19) or 5.625 × 10^4 cells/well (HCT116 p53^−/− and HCT116 p53^+/+). 24 h after seeding, cells were treated with 3.125 μM of [L2Cu3]^6+, [L2Zn3]^6+, [L2Mn3]^6+, or vehicle control for 40 h before removal and addition of CYTO-ID Green autophagic dye (1:500 dilution, Enzo Life Sciences) and Hoechst 3342 nuclear counter stain for 30 min at 37 °C. Media was then replaced before imaging using a Zeiss LSM880 confocal laser scanning microscope."}},
  "note": "Where “and” joins values, the source holds several entries; their conditions need not be identical. Identical values can stand only once. Like-named read-outs stand apart in the source and are kept apart here.",
  "data": [
    {"smiles": "CC(=O)[O-].CC(=O)[O-].CC(=O)[O-].CC(=O)[O-].CC(=O)[O-].CC(=O)[O-].[Zn+2].[Zn+2].[Zn+2].c1ccc(-c2csc(NCCN(CCNc3nc(-c4ccccn4)cs3)CCNc3nc(-c4ccccn4)cs3)n2)nc1.c1ccc(-c2csc(NCCN(CCNc3nc(-c4ccccn4)cs3)CCNc3nc(-c4ccccn4)cs3)n2)nc1", "note": "[[L2Zn3]6+]", "values": [
      {"measurement": "IC50", "setting": "HT-29; HT29, mean of replicates, read-out: Mean IC50", "result": 169, "unit": "nM"},
      {"measurement": "IC50", "setting": "HT-29; HT29, read-out: Mean IC50 values", "result": 169, "unit": "nM"},
      {"measurement": "IC50", "setting": "HT-29; HT-29, 96 h, MTT, individual run, read-out: IC50 values for each replicate", "result": "83 nM and 161 nM and 235 nM and 184 nM and 182 nM"},
      {"measurement": "IC50", "setting": "HT-29; HT-29, 96 h, MTT, mean of at least 3 independent experiments, read-out: Mean IC50", "result": 169, "unit": "nM"},
      {"measurement": "Selectivity index (ARPE19)", "setting": "HT-29; IC50 ARPE-19 / IC50 HT29", "result": 930.47},
      {"measurement": "Selectivity index (MCF10A)", "setting": "HT-29; IC50 MCF10A / IC50 HT29", "result": 956.45},
      {"measurement": "Selectivity Index using the NPI non-cancer cell line", "setting": "HT-29; IC50 NP1 / IC50 HT29", "result": 46.04},
      {"measurement": "SI (ARPE19)", "setting": "HT-29; mean IC50 ARPE-19 / mean IC50 HT-29", "result": 930.47},
      {"measurement": "SI (MCF10A)", "setting": "HT-29; mean IC50 MCF10A / mean IC50 HT-29", "result": 956.45},
      {"measurement": "SI (NPI)", "setting": "HT-29; mean IC50 NP1 / mean IC50 HT-29", "result": 46.04},
      {"measurement": "Relative potency (+ anion to no anion), Ratio + anion:no anion", "setting": "HT-29; ratio of IC50, HT29", "result": 1},
      {"measurement": "Selectivity indices relative to ARPE-19, Ratio + anion:no anion", "setting": "HT-29; ratio of SI (ARPE-19), HT29", "result": 1},
      {"measurement": "Selectivity indices relative to MCF10A, Ratio + anion:no anion", "setting": "HT-29; ratio of SI (MCF 10A), HT29", "result": 1},
      {"measurement": "IC50", "setting": "HCT116 p53-/- [1]; HCT116 p53-/-, 96 h, MTT, individual run, read-out: IC50 values for each replicate", "result": "61 nM and 91 nM and 64 nM"},
      {"measurement": "IC50", "setting": "HCT116 p53-/- [1]; HCT116 p53-/-, 96 h, MTT, mean of at least 3 independent experiments, read-out: Mean IC50", "result": 72, "unit": "nM"},
      {"measurement": "IC50", "setting": "HCT116 p53-/- [1]; HCT116 p53-/-, 96 h, MTT, read-out: IC50", "result": "70 ± 13", "unit": "nM"},
      {"measurement": "IC50", "setting": "HCT116 p53-/- [1]; HCT116 p53-/-, mean of replicates, read-out: Mean IC50", "result": 75, "unit": "nM"},
      {"measurement": "IC50", "setting": "HCT116 p53-/- [1]; HCT116 p53-/-, read-out: Mean IC50 values", "result": 72, "unit": "nM"},
      {"measurement": "IC50", "setting": "HCT116 p53-/- [1]; HCT116 p53-/-, single replicate, read-out: IC50 values for each replicate", "result": "79 nM and 86 nM"},
      {"measurement": "Selectivity index (ARPE19)", "setting": "HCT116 p53-/- [1]; IC50 ARPE-19 / IC50 HCT116 p53-/-", "result": "2184.03 and 2183.99"},
      {"measurement": "Selectivity index (MCF10A)", "setting": "HCT116 p53-/- [1]; IC50 MCF10A / IC50 HCT116 p53-/-", "result": 2245.00},
      {"measurement": "Selectivity Index using the NPI non-cancer cell line", "setting": "HCT116 p53-/- [1]; IC50 NP1 / IC50 HCT116 p53-/-", "result": 108.06},
      {"measurement": "more active towards HCT116 p53-/- than HCT116 p53+/+", "setting": "HCT116 p53-/- [1]; based on 96h IC50 values", "result": "~ 6 fold"},
      {"measurement": "SI (ARPE19)", "setting": "HCT116 p53-/- [1]", "result": 2184.03},
      {"measurement": "SI (ARPE19)", "setting": "HCT116 p53-/- [1]; listed as [L2Zn3]^6+", "result": "over 2000"},
      {"measurement": "SI (MCF10A)", "setting": "HCT116 p53-/- [1]", "result": 2245.00},
      {"measurement": "SI (MCF10A)", "setting": "HCT116 p53-/- [1]; listed as [L2Zn3]^6+", "result": "over 2000"},
      {"measurement": "SI (NPI)", "setting": "HCT116 p53-/- [1]; mean IC50 NP1 / mean IC50 HCT116 p53-/-", "result": 108.06},
      {"measurement": "Relative potency (+ anion to no anion), Ratio + anion:no anion", "setting": "HCT116 p53-/- [1]; ratio of IC50, HCT116 p53-/-", "result": 1},
      {"measurement": "Selectivity indices relative to ARPE-19, Ratio + anion:no anion", "setting": "HCT116 p53-/- [1]; ratio of SI (ARPE-19), HCT116 p53-/-", "result": 1},
      {"measurement": "Selectivity indices relative to MCF10A, Ratio + anion:no anion", "setting": "HCT116 p53-/- [1]; ratio of SI (MCF 10A), HCT116 p53-/-", "result": 1},
      {"measurement": "IC50", "setting": "H460; H460, 96 h, MTT, individual run, read-out: IC50 values for each replicate", "result": "186 nM and 273 nM and 557 nM and 236 nM and 441 nM and 594 nM and 235 nM"},
      {"measurement": "IC50", "setting": "H460; H460, 96 h, MTT, mean of at least 3 independent experiments, read-out: Mean IC50", "result": 360, "unit": "nM"},
      {"measurement": "IC50", "setting": "H460; H460, mean of replicates, read-out: Mean IC50", "result": 360, "unit": "nM"},
      {"measurement": "IC50", "setting": "H460; H460, read-out: Mean IC50 values", "result": 360, "unit": "nM"},
      {"measurement": "Selectivity index (ARPE19)", "setting": "H460; IC50 ARPE-19 / IC50 H460", "result": 436.81},
      {"measurement": "Selectivity index (MCF10A)", "setting": "H460; IC50 MCF10A / IC50 H460", "result": 449.00},
      {"measurement": "Selectivity Index using the NPI non-cancer cell line", "setting": "H460; IC50 NP1 / IC50 H460", "result": 21.61},
      {"measurement": "SI (ARPE19)", "setting": "H460; mean IC50 ARPE-19 / mean IC50 H460", "result": 436.81},
      {"measurement": "SI (MCF10A)", "setting": "H460; mean IC50 MCF10A / mean IC50 H460", "result": 449.00},
      {"measurement": "SI (NPI)", "setting": "H460; mean IC50 NP1 / mean IC50 H460", "result": 21.61},
      {"measurement": "Relative potency (+ anion to no anion), Ratio + anion:no anion", "setting": "H460; ratio of IC50, H460", "result": 1},
      {"measurement": "Selectivity indices relative to ARPE-19, Ratio + anion:no anion", "setting": "H460; ratio of SI (ARPE-19), H460", "result": 1},
      {"measurement": "Selectivity indices relative to MCF10A, Ratio + anion:no anion", "setting": "H460; ratio of SI (MCF 10A), H460", "result": 1},
      {"measurement": "Selectivity index (ARPE19)", "setting": "PSN1; IC50 ARPE-19 / IC50 PSN1", "result": 35.39},
      {"measurement": "Selectivity index (MCF10A)", "setting": "PSN1; IC50 MCF10A / IC50 PSN1", "result": 36.38},
      {"measurement": "Selectivity Index using the NPI non-cancer cell line", "setting": "PSN1; IC50 NP1 / IC50 PSN1", "result": 1.75},
      {"measurement": "IC50", "setting": "PSN1; PSN1, 96 h, MTT, individual run, read-out: IC50 values for each replicate", "result": "6200 nM and 4880 nM and 2250 nM"},
      {"measurement": "IC50", "setting": "PSN1; PSN1, 96 h, MTT, mean of at least 3 independent experiments, read-out: Mean IC50", "result": "> 1000", "unit": "nM"},
      {"measurement": "IC50", "setting": "PSN1; PSN1, mean of replicates, read-out: Mean IC50", "result": 4440, "unit": "nM"},
      {"measurement": "IC50", "setting": "PSN1; PSN1, read-out: Mean IC50 values", "result": 4440, "unit": "nM"},
      {"measurement": "SI (ARPE19)", "setting": "PSN1; mean IC50 ARPE-19 / mean IC50 PSN1", "result": 35.39},
      {"measurement": "SI (MCF10A)", "setting": "PSN1; mean IC50 MCF10A / mean IC50 PSN1", "result": 36.38},
      {"measurement": "SI (NPI)", "setting": "PSN1; mean IC50 NP1 / mean IC50 PSN1", "result": 1.75},
      {"measurement": "Relative potency (+ anion to no anion), Ratio + anion:no anion", "setting": "PSN1; ratio of IC50, PSN1", "result": 1},
      {"measurement": "Selectivity indices relative to ARPE-19, Ratio + anion:no anion", "setting": "PSN1; ratio of SI (ARPE-19), PSN1", "result": 1},
      {"measurement": "Selectivity indices relative to MCF10A, Ratio + anion:no anion", "setting": "PSN1; ratio of SI (MCF 10A), PSN1", "result": 1},
      {"measurement": "induction of vacuoles / autophagy (CYTO-ID)", "setting": "HCT116 p53-/- [2]", "result": "induced the appearance of vacuoles"}
    ]}
  ]
}
